{"source": "patent US12077503B2", "about": "“Substituted cyclic amides and their use as herbicides” (FMC CORPORATION, priority 2015, dated 2024)", "type_in_all_cases": "in vivo", "key": {"[1]": {"system": "pigweed (Amaranthus retroflexus)", "assay": "Test A preemergence", "settings": "Amaranthus retroflexus, pre-emergence, 240 h"}, "[2]": {"system": "barnyardgrass (Echinochloa crus-galli)", "assay": "Test A preemergence", "settings": "Echinochloa crus-galli, pre-emergence, 240 h", "summary_of_the_method": "(§1)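 Each rating is a visual injury score from 0 to 100 given about 10 d after treatment, judged against untreated controls kept alongside in the greenhouse. In loam soil–sand blend, seeds got a preemergence directed soil spray, while postemergence plants were 2 to 10 cm tall at spraying.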"}, "[3]": {"system": "ryegrass, Italian (Italian ryegrass, Lolium multiflorum)", "assay": "Test A preemergence", "settings": "Lolium multiflorum, pre-emergence, 240 h", "summary_of_the_method": "as §1"}, "[4]": {"system": "giant foxtail (Setaria faberii)", "assay": "Test A preemergence", "settings": "Setaria faberi, pre-emergence, 240 h", "summary_of_the_method": "as §1"}, "[5]": {"system": "Kochia (Kochia scoparia)", "assay": "Test A preemergence", "settings": "Bassia scoparia, pre-emergence, 240 h", "summary_of_the_method": "as §1"}, "[6]": {"system": "ragweed (common ragweed, Ambrosia elatior)", "assay": "Test A preemergence", "settings": "Ambrosia artemisiifolia, pre-emergence, 240 h", "summary_of_the_method": "as §1"}, "[7]": {"system": "sedge, umbrella (small-flower umbrella sedge, Cyperus difformis)", "assay": "Test B flooded paddy test", "settings": "Cyperus difformis, Flood, 250 g ai/ha; scale of 0 to 100 where 0 is no effect and 100 is complete control; read-out: Sedge, Umbrella plant response rating", "summary_of_the_method": "(§2)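 Rating scale 0–100 (visual, vs untreated controls) after a 13–15 d greenhouse period; application to the flood layer, 3 cm above soil and maintained; plants at 2-leaf stage when treated.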"}, "[8]": {"system": "barnyardgrass (Echinochloa crus-galli)", "assay": "Test B flooded paddy test", "settings": "Echinochloa crus-galli, Flood, 250 g ai/ha; scale of 0 to 100 where 0 is no effect and 100 is complete control; read-out: Barnyardgrass plant response rating", "summary_of_the_method": "as §2"}, "[9]": {"system": "ducksalad (Heteranthera limosa)", "assay": "Test B flooded paddy test", "settings": "Heteranthera limosa, Flood, 250 g ai/ha; scale of 0 to 100 where 0 is no effect and 100 is complete control; read-out: Ducksalad plant response rating", "summary_of_the_method": "as §2"}, "[10]": {"system": "rice (Oryra sativa)", "assay": "Test B flooded paddy test", "settings": "Oryza sativa, Flood, 250 g ai/ha; scale of 0 to 100 where 0 is no effect and 100 is complete control; read-out: Rice plant response rating", "summary_of_the_method": "as §2"}, "[11]": {"system": "pigweed (Amaranthus retroflexus)", "assay": "Test A postemergence", "settings": "Amaranthus retroflexus, post-emergence, 240 h, 125 g ai/ha, Postemergence; visual injury after approximately 10 d; 0 to 100 scale where 0 is no effect and 100 is complete control; read-out: Plant response rating, Pigweed", "summary_of_the_method": "as §1"}, "[12]": {"system": "barnyardgrass (Echinochloa crus-galli)", "assay": "Test A postemergence", "settings": "Echinochloa crus-galli, post-emergence, 240 h, 125 g ai/ha, Postemergence; visual injury after approximately 10 d; 0 to 100 scale where 0 is no effect and 100 is complete control; read-out: Plant response rating, Barnyardgrass", "summary_of_the_method": "as §1"}, "[13]": {"system": "ryegrass, Italian (Italian ryegrass, Lolium multiflorum)", "assay": "Test A postemergence", "settings": "Lolium multiflorum, post-emergence, 240 h, 125 g ai/ha, Postemergence; visual injury after approximately 10 d; 0 to 100 scale where 0 is no effect and 100 is complete control; read-out: Plant response rating, Ryegrass, Italian", "summary_of_the_method": "as §1"}, "[14]": {"system": "giant foxtail (Setaria faberii)", "assay": "Test A postemergence", "settings": "Setaria faberi, post-emergence, 240 h, 125 g ai/ha, Postemergence; visual injury after approximately 10 d; 0 to 100 scale where 0 is no effect and 100 is complete control; read-out: Plant response rating, Foxtail, Giant", "summary_of_the_method": "as §1"}, "[15]": {"system": "Kochia (Kochia scoparia)", "assay": "Test A postemergence", "settings": "Bassia scoparia, post-emergence, 240 h, 125 g ai/ha, Postemergence; visual injury after approximately 10 d; 0 to 100 scale where 0 is no effect and 100 is complete control; read-out: Plant response rating, Kochia", "summary_of_the_method": "as §1"}, "[16]": {"system": "ragweed (common ragweed, Ambrosia elatior)", "assay": "Test A postemergence", "settings": "Ambrosia artemisiifolia, post-emergence, 240 h, 125 g ai/ha, Postemergence; visual injury after approximately 10 d; 0 to 100 scale where 0 is no effect and 100 is complete control; read-out: Plant response rating, Ragweed", "summary_of_the_method": "as §1"}, "[17]": {"system": "blackgrass (Alopecurus myosuroides)", "assay": "Test A postemergence", "settings": "Alopecurus myosuroides, post-emergence, 240 h, 125 g ai/ha, Postemergence; visual injury after approximately 10 d; 0 to 100 scale where 0 is no effect and 100 is complete control; read-out: Plant response rating, Blackgrass", "summary_of_the_method": "as §1"}, "[18]": {"system": "corn (Zea mays)", "assay": "Test A postemergence", "settings": "Zea mays, post-emergence, 240 h, 125 g ai/ha, Postemergence; visual injury after approximately 10 d; 0 to 100 scale where 0 is no effect and 100 is complete control", "summary_of_the_method": "as §1"}, "[19]": {"system": "wheat (Triticum aestivum)", "assay": "Test A postemergence", "settings": "Triticum aestivum, post-emergence, 240 h, 125 g ai/ha, Postemergence; visual injury after approximately 10 d; 0 to 100 scale where 0 is no effect and 100 is complete control; read-out: Plant response rating, Wheat", "summary_of_the_method": "as §1"}, "[20]": {"system": "Galium (catchweed bedstraw, Galium aparine)", "assay": "Test A postemergence", "settings": "Galium, post-emergence, 240 h, 125 g ai/ha, Postemergence; visual injury after approximately 10 d; 0 to 100 scale where 0 is no effect and 100 is complete control; read-out: Plant response rating, Galium", "summary_of_the_method": "as §1"}}}
{"smiles": "O=C1NC[C@H](c2cc(C(F)(F)F)cs2)[C@H]1C(=O)Nc1ccccc1F", "note": "[Compound 960]", "values": [{"measurement": "pest or weed control at 125 g/ha", "setting": "[1]; 125 g ai/ha, Preemergence, visual injury rating after approximately 10 d, read-out: Pigweed plant response rating (0 to 100 scale, 0 is no effect, 100 is complete control)", "result": 0, "unit": "%"}, {"measurement": "pest or weed control at 500 g/ha", "setting": "[1]; 500 g ai/ha, preemergence, visual injury rating about 10 d after treatment, 0 to 100 scale (0 no effect, 100 complete control), read-out: Pigweed plant response rating", "result": 0, "unit": "%"}, {"measurement": "pest or weed control at 125 g/ha", "setting": "[2]; 125 g ai/ha, Preemergence, visual injury rating after approximately 10 d, read-out: Barnyardgrass plant response rating (0 to 100 scale, 0 is no effect, 100 is complete control)", "result": 80, "unit": "%"}, {"measurement": "pest or weed control at 500 g/ha", "setting": "[2]; 500 g ai/ha, preemergence, visual injury rating about 10 d after treatment, 0 to 100 scale (0 no effect, 100 complete control), read-out: Barnyardgrass plant response rating", "result": 90, "unit": "%"}, {"measurement": "pest or weed control at 125 g/ha", "setting": "[3]; 125 g ai/ha, Preemergence, visual injury rating after approximately 10 d, read-out: Ryegrass, Italian plant response rating (0 to 100 scale, 0 is no effect, 100 is complete control)", "result": 0, "unit": "%"}, {"measurement": "pest or weed control at 500 g/ha", "setting": "[3]; 500 g ai/ha, preemergence, visual injury rating about 10 d after treatment, 0 to 100 scale (0 no effect, 100 complete control), read-out: Ryegrass, Italian plant response rating", "result": 0, "unit": "%"}, {"measurement": "pest or weed control at 125 g/ha", "setting": "[4]; 125 g ai/ha, Preemergence, visual injury rating after approximately 10 d, read-out: Foxtail, Giant plant response rating (0 to 100 scale, 0 is no effect, 100 is complete control)", "result": 70, "unit": "%"}, {"measurement": "pest or weed control at 500 g/ha", "setting": "[4]; 500 g ai/ha, preemergence, visual injury rating about 10 d after treatment, 0 to 100 scale (0 no effect, 100 complete control), read-out: Foxtail, Giant plant response rating", "result": 90, "unit": "%"}, {"measurement": "pest or weed control at 125 g/ha", "setting": "[5]; 125 g ai/ha, Preemergence, visual injury rating after approximately 10 d, read-out: Kochia plant response rating (0 to 100 scale, 0 is no effect, 100 is complete control)", "result": 20, "unit": "%"}, {"measurement": "pest or weed control at 500 g/ha", "setting": "[5]; 500 g ai/ha, preemergence, visual injury rating about 10 d after treatment, 0 to 100 scale (0 no effect, 100 complete control), read-out: Kochia plant response rating", "result": 30, "unit": "%"}, {"measurement": "pest or weed control at 125 g/ha", "setting": "[6]; 125 g ai/ha, Preemergence, visual injury rating after approximately 10 d, read-out: Ragweed plant response rating (0 to 100 scale, 0 is no effect, 100 is complete control)", "result": 0, "unit": "%"}, {"measurement": "pest or weed control at 500 g/ha", "setting": "[6]; 500 g ai/ha, preemergence, visual injury rating about 10 d after treatment, 0 to 100 scale (0 no effect, 100 complete control), read-out: Ragweed plant response rating", "result": 0, "unit": "%"}, {"measurement": "pest or weed control at 250 g/ha", "setting": "[7]", "result": 65, "unit": "%"}, {"measurement": "pest or weed control at 250 g/ha", "setting": "[8]", "result": 20, "unit": "%"}, {"measurement": "pest or weed control at 250 g/ha", "setting": "[9]", "result": 100, "unit": "%"}, {"measurement": "pest or weed control at 250 g/ha", "setting": "[10]", "result": 0, "unit": "%"}, {"measurement": "pest or weed control at 125 g/ha", "setting": "[11]", "result": 0, "unit": "%"}, {"measurement": "pest or weed control at 125 g/ha", "setting": "[12]", "result": 50, "unit": "%"}, {"measurement": "pest or weed control at 125 g/ha", "setting": "[13]", "result": 30, "unit": "%"}, {"measurement": "pest or weed control at 125 g/ha", "setting": "[14]", "result": 20, "unit": "%"}, {"measurement": "pest or weed control at 125 g/ha", "setting": "[15]", "result": 0, "unit": "%"}, {"measurement": "pest or weed control at 125 g/ha", "setting": "[16]", "result": 0, "unit": "%"}, {"measurement": "pest or weed control at 125 g/ha", "setting": "[17]", "result": 20, "unit": "%"}, {"measurement": "Corn plant response rating (crop injury, 0 = no effect, 100 = complete kill) at 125 g/ha", "setting": "[18]", "result": 0, "unit": "%"}, {"measurement": "plant injury at 125 g/ha", "setting": "[19]", "result": 0, "unit": "%"}, {"measurement": "pest or weed control at 125 g/ha", "setting": "[20]", "result": 0, "unit": "%"}]}
